Legend:
[1] = system: focal cerebral ischemia reperfusion model rats; test: Focal cerebral ischemia reperfusion model in rats, intraperitoneal dosing (Example 16); type: in vivo, Wistar rats; settings: for Cerebral infarction size (%): 2 h ischemia, 24 h reperfusion, i.p. twice (30 min before ischemia, 12 h after reperfusion), combination 0.5+0.25 mg/kg, control 35.7 ± 7.52; for Cerebral infarction size (%) / neurological deficit score (points) / Cerebral water content (%): Edaravone 1.0 mg/kg, natural borneol 0.5 mg/kg, mean ± SD; for neurological deficit score (points): Longa 5-point scoring 24 h after reperfusion, control 3.1 ± 1.05; for neurological deficit score (points) / Cerebral water content (%): combination 0.5+0.25 mg/kg i.p. twice; for Cerebral water content (%): dry and wet method after ischemia/reperfusion, sham 78.41, control 82.19; for cerebral edema / cerebral water content compared with control group: single drugs P<0.05, combination P<0.01; for effect on symptoms of neurological deficits: versus control group, doses as Table 1
Method: 1.1 Animals: healthy male Wistar rats weighing 280-320 g.
1.2 Drugs and Reagents: Edaravone for injection (2 mg/mL) of Example 1, natural borneol injection (2 mg/mL) of Example 3 and Edaravone+natural borneol injection of Example 5.
Main steps are described as follows. Rats were anesthetized with 10% chloral hydrate (350 mg/kg, i.p.). Right external carotid was separated, ligated and severed. A nylon thread with rounded tip was inserted slowly for about 18 mm in depth into the residual end of right external carotid and through common carotid and internal carotid to induce ischemia by blocking the origin of middle cerebral artery. After ischemia for 2 h, the nylon thread was removed for reperfusion for 24 h. Animals in the sham group were treated identically to those in the model group, except that a nylon thread was just used to separate the artery. Manifestation of Homer's symptom and opposite lateral body dyskinesia after animal revival means a successful modelling.
Experimental animals were randomly divided into five groups, including sham group, control group and drug groups. Animals in drug groups were intraperitoneally injected twice, 30 min before ischemia and 12 h after reperfusion. Animals in sham group and control group were each injected with equal volume of normal saline instead.
Neurological deficit scoring: Behavioral evaluation was performed 24 h after reperfusion according to Longa 5-point scoring system.
Determination of cerebral infarction size: Animals were decapitated to get the brain after the last neurological deficit scoring. Rhinencephalon, lower brain stem and cerebella were removed, and the remaining brains were immediately weighted to obtain wet weights. The brains were sectioned coronally into five slices with substantially identical thickness on ice, then incubated in 2,3,5-triphenyl tetrazolium chloride for 30 min at 37° C. Normal brain tissues appeared rose, while infarction areas appeared white. Next, brain slices were fixed in 10% formaldehyde, and white tissues were carefully removed and weighed. Infarction size was determined by the percentage of infracted tissue weight in the total cerebral weight.
Determination of cerebral water content: Cerebral water contents were determined by dry and wet method. Animals were sacrificed to get the whole brain. Rhinencephalon, lower brain stem and cerebella were removed and the wet weight of the remaining brains was determined immediately. Dry weight was obtained after baking in a oven for about 18 h at 120° C. Cerebral water content was calculated according to the following equation: Cerebral water content (%)=(cerebral wet weight−cerebral dry weight)/cerebral wetweight×100.

New Zealand rabbits = test: Repeated intravenous toxicity in rabbits: hematuria, gross necropsy, histopathology (Example 19); type: in vivo; settings: for incidence of hematuria: marginal ear vein once daily, 6 rabbits
Method: 1.1 Animals: 36 New Zealand rabbits, general grade, with body weight of 2.0-3.0 kg, 18 ♂ and 18 ♀(female and male) respectively.
1.2 Drugs and Reagents: drugs obtained from Examples 12, 13, 14 and 15; 1,2-propylene glycol, 0.9% sodium chloride injection.
Edaravone 80 mg/kg (propylene glycol content: 40%)
Edaravone 20 mg/kg (propylene glycol content: 10%)
Combined Edaravone 120 mg/kg (propylene glycol content: 50%)
Combined Edaravone 30 mg/kg (propylene glycol content: 10%)
Combined Edaravone in this Example refers to Edaravone+natural borneol (weight ratio=2:1).
In the above dosage groups, the dosage per day per rabbit was calculated according to actual weight of each rabbit. The test drugs were administrated in equal volume according to body weight of respective rabbits.
36 rabbits were numbered and randomly divided into six groups according to the body weight, including 4 dosage groups, “Edaravone+natural borneol (weight ratio=2:1)” 120 mg/kg, 30 mg/kg; “Edaravone” 80 mg/kg, 20 mg/kg; as well as vehicle group (40% propylene glycol solution) and solvent group (0.9% sodium chloride injection). There were 6 rabbits in each group, including 3 males and 3 females each. Rabbits were habituated and observed for 3 days before the test. During the test, rabbits were dosed once at the same time in each morning via marginal ear vein injection. Rabbits in high dosage groups were continuously dosed for 13 days, while in low dosage groups, solvent group and vehicle group for 20 days. The dosage were regulated in accordance with body weight variation. Animal responses, stimulations at injection sites and histopathological examination in kidneys and injection site were used to comprehensively evaluate the toxicity of either combined Edaravone or Edaravone on the rabbits.

[2] = system: cerebral ischemia/reperfusion model rats; test: Focal cerebral ischemia/reperfusion model, Edaravone versus combinations 2:1, 4:1, 9:1 (Example 18); type: in vivo, Wistar rats
Method: 1.1 Animals: Healthy male Wistar rats weighing 280-320 g.
1.2 Drugs and Reagents: Edaravone for injection (2 mg/mL) of Example 1, and Edaravone+natural borneol for injection of Examples 5, 7 and 11.
Experimental methods and evaluation methods are the same as Example 13.

[3] = system: MCAO cerebral ischemia/reperfusion model rats; test: Middle cerebral artery occlusion (MCAO) cerebral ischemia/reperfusion model, internal carotid thread method (Example 17); type: in vivo, Wistar rats; settings: Edaravone+natural borneol total 0.75 mg/kg, Nimodipine 0.4 mg/kg single dosage, mean ± SD, n=8
Method: 1.2 Drugs and Reagents: Edaravone+natural borneol for injection of Examples 5, 8 and 9.
Middle cerebral artery occlusion (MCAO), a cerebral ischemia/reperfusion model, was prepared using the internal carotid thread method. Animals were anesthetized with 10% chloral hydrate (3.5 mL/kg), and then fixed on the operation table in prone position. The skin was disinfected and the neck was incised from the midline. Right common carotid, external carotid and internal carotid were separated, and vagus nerve was separated carefully. The external carotid was ligated and severed. Moved forward along the internal carotid, and then pterygopalatine artery was ligated. The proximal part of common carotid was clamped and a cut was made at the distal end of the external carotid ligature. A nylon thread with the outer diameter of 0.285 mm was inserted into the cut, through the branch of common carotid and then into internal carotid slowly until a slight resistance was met (about 20 mm distance from the divergence point). […] Cerebral blood flow was monitored by using laser Doppler cerebral flowmetry. After ischemia in the right brain for 2.0 h, the nylon thread was withdrawn slowly and then blood supply was recovered for reperfusion. The scalp was sutured and disinfected. In the sham group, only the blood vessels were separated without the insertion of a nylon thread. During the operation, rat heating plate and desk lamp with 60 W were used to keep the body temperature of rats at 37.0±0.5° C. […]
Neurological deficit scoring: neurological deficit symptoms were evaluated according to modified Bederson scoring system of 5-point. Neurological deficit symptoms after cerebral trauma in rats were evaluated by using single-blinded method. That is, the experiment designer labeled the animals in groups, while the experiment performer who scored neurological deficit symptoms were blinded for animals grouping. […]

[4] = Edaravone 80 and 20 mg/kg groups, combined Edaravone 120 and 30 mg/kg groups

Row | SMILES | Cerebral infarction size (%) [1] | neurological deficit score (points) [1] | Cerebral water content (%) [1] | cerebral edema / cerebral water content compared with control group [1] | effect on symptoms of neurological deficits [1] | gross necropsy: rabbits with a swollen kidney (New Zealand rabbits; 20 mg/kg i.v. daily, 20 days) | incidence of hematuria (New Zealand rabbits; 20 mg/kg, 20 days, propylene glycol 10%) | gross necropsy: liver finding (New Zealand rabbits; 80 mg/kg i.v. daily, 13 days) | gross necropsy: rabbits with khaki and swollen kidney having uneven surface (New Zealand rabbits; 80 mg/kg i.v. daily, 13 days) | incidence of hematuria (New Zealand rabbits; 80 mg/kg, 13 days, propylene glycol 40%) | histopathological examination: injection sites (New Zealand rabbits; [4]) | histopathological examination: kidney (New Zealand rabbits; [4]) | neurological deficit symptoms score ([2]; Edaravone 3 mg/kg, combination dose not given, mean ± SD, n=8, model 2.7 ± 0.5) | cerebral infarction area ([2]; Edaravone 3 mg/kg, combination dose not given, mean ± SD, n=8, model 25.4 ± 14.8) | brain lesion ([2]; Edaravone 3 mg/kg, combination dose not given, mean ± SD, n=8, model 32.2 ± 15.1) | cerebral infarction area compared with model group ([2]; F4,35=4.62, P=0.03, 4:1 and 9:1 P=0.081) | severity of brain lesion compared with model group ([2]; F4,35=5.78, P=0.04, 4:1 and 9:1 P=0.159) | neurological deficit symptoms score ([3]; modified Bederson 5-point score, four administrations (0, 2, 4, 24 h after ischemia), model 2.6 ± 0.52) | brain lesion ([3]; percentage of brain lesion by formazan absorbance at 485 nm, model 33.2 ± 14.8) | cerebral infarction area ([3]; percentage of infarction area by TTC image analysis, model 27.4 ± 13.4)
1 | CC1=NN(c2ccccc2)C(=O)C1 [Edaravone, 3-methyl-1-phenyl-2-pyrazolin-5-one] | 18.0 ± 5.29 % | 2.5 ± 1.02 points | 81.65 ± 1.24 % | significant effect | Neither Edaravone alone nor natural borneol alone had significant effect | 3 of 6 | 100% | one of the rabbits suffered hepatonecrosis and had a khaki and hard liver | 3 of 6 | 100% | stimulatory changes such as vascular occlusion to varied extents | progressive renal lesion such as renal tubular lesion, inflammatory infiltration of mesenchyme, and glomerular lesion | 0.94 ± 0.46 | 9.7 ± 4.6 | 11.6 ± 9.7 | significantly reduced | significantly reduced |  |  | 
2 | CC1(C)C2CCC1(C)C(O)C2 (stereo not shown) [Natural borneol, dextro-camphol] | 19.8 ± 6.37 % | 2.0 ± 0.98 points | 81.25 ± 0.97 % | significant effect | Neither Edaravone alone nor natural borneol alone had significant effect |  |  |  |  |  |  |  |  |  |  |  |  |  |  | 
3 | COCCOC(=O)C1=C(C)NC(C)=C(C(=O)OC(C)C)C1c1cccc([N+](=O)[O-])c1 (stereo not shown) [Nimodipine] |  |  |  |  |  |  |  |  |  |  |  |  |  |  |  |  |  | 1.1 ± 0.58 | 11.6 ± 5.0 | 8.8 ± 4.0
